Results: US5260386A, “Synthesis of tagged polymers by post-polymerization (trans) amidation reaction” (Nalco Chemical Company, priority 1993, dated 1993)

Assays:
[1] = Survey of relative performance of fluorescent derivatizing agents against a cooling water background; assay type: physicochemical; conditions: for Fluorescent Maximum, emission (em) / Fluorescent Maximum, excitation (ex): 0.4 ppm (acid actives) aqueous solution; for Relative Intensity Value, Composition: 0.4 ppm (acid actives), 1,5-naphthalene disulfonic acid standard = 100%, at own fluorescence maximum; for Relative Performance: composition relative intensity / cooling water background relative intensity
From the text: In preferred embodiment the derivatizing agents are selected from those that a reasonably high "relative performance" for a given background. As noted above, a molecule is generally considered highly fluorescent when it has a fluorescent quantum efficiency, or fluorescent quantum yield, within the range of from about 0.1 to about 1.0, and a light absorbance molar extinction coefficient of at least 1,000. The magnitude of fluorescent signal, or relative fluorescence, is the product of the fluorescent quantum yield multiplied times the light absorbance molar extinction coefficient. […] The "relative performance", as this phrase is used herein, is the ratio of the relative fluorescence of a composition to the relative fluorescence of a given background medium. The fluorescence readings are typically measured at the excitation/emission wavelengths that represent major peaks for the given fluorescent tagged polymer. […] Some generalities may be considered. Industrial cooling waters generally have an overall higher fluorescent intensity than industrial boiler waters, and therefore a degree of polymer tagging that is reasonably high for use in boiler waters may not be sufficiently high for cooling waters, since of course the intensity of fluorescence must not be overwhelmed by the background fluorescence and the intensity of fluorescence is dependent on the concentration level of the fluorescent species. Similarly, a polymer that is to be used at high concentration levels in a given background medium need not be tagged to the same extent as one that is to be used at much lower concentration levels, other parameters being the same.
Thus in Example 38 below a survey of relative performance values of a number of fluorescent derivatizing agents against a cooling water background is given as representative of the use of such screening method for any other group of derivatizing agents and any other type of background.
The relative performances of a variety of fluorescent derivatizing agents were surveyed against a cooling water background as follows. An aqueous solution of each agent at a concentration level of 0.4 ppm (acid actives) and the fluorescent intensity of each agent at its fluorescence maximum was determined, in comparison to a fluorescence reference standard. The standard used was 1,5-naphthalene disulfonic acid, which is not a derivatizing agent for the purposes of the present invention because it has no amine functionality. This standard was also measured at its fluorescence maximum in an aqueous solution at a concentration of 0.4 ppm (acid actives) and its intensity was assigned a "relative intensity value" of 100%. The "relative intensity values" of each of the other compositions tested were assigned in relationship to the intensity of the standard. For instance, a composition that had twice the intensity of the standard (the standard and the composition each being measured at their own fluorescence maximums) would be given a relative intensity value of 200%. Then the relative intensity values of the various compositions were compared to that of the cooling water background at the fluorescent maximum (peak excitation/emission wavelengths) of the composition. The cooling water fluorescent intensity employed was the average relative intensity of ten representative cooling water formulations measured for combination of wavelengths of excitation and emission within the range required for this survey. The relative performance for each composition thus is the value determined by dividing the relative intensity value determined for the fluorescence of each composition by the relative intensity value of the background fluorescence of cooling water at the same combination of wavelengths. The identities of the various compositions surveyed and the values determined are set forth below in Table VII.

rats = conditions: cited from earlier work

## 1-amino-3,6-naphthalene trisulfonic acid
[1]
  Fluorescent Maximum, emission (em): 500 nm
  Fluorescent Maximum, excitation (ex): 360 nm
  Relative Intensity Value, Composition: 4%
  Relative Performance: 0

## O=S(=O)(O)c1cccc2c(S(=O)(=O)O)cccc12 [1,5-naphthalene disulfonic acid]
[1]
  Fluorescent Maximum, emission (em): 330 nm
  Fluorescent Maximum, excitation (ex): 290 nm
  Relative Intensity Value, Composition: 100%
  Relative Performance: 14

## Nc1cc(S(=O)(=O)O)cc2cccc(S(=O)(=O)O)c12 [1-amino-3,8-naphthalene disulfonic acid]
[1]
  Fluorescent Maximum, emission (em): 480 nm
  Fluorescent Maximum, excitation (ex): 245 nm
  Relative Intensity Value, Composition: 540%
  Relative Performance: 25

## Nc1ccc(S(=O)(=O)O)c2cccc(S(=O)(=O)O)c12 [1-amino-4,8-naphthalene disulfonic acid]
[1]
  Fluorescent Maximum, emission (em): 500 nm
  Fluorescent Maximum, excitation (ex): 255 nm
  Relative Intensity Value, Composition: 122%
  Relative Performance: 5

## Nc1ccc(S(=O)(=O)O)c2ccccc12 [1-amino-4-naphthalene sulfonic acid]
[1]
  Fluorescent Maximum, emission (em): 420 nm
  Fluorescent Maximum, excitation (ex): 325 nm
  Relative Intensity Value, Composition: 444%
  Relative Performance: 24

## Nc1cccc2c(S(=O)(=O)O)cccc12 [1-amino-5-naphthalene sulfonic acid]
[1]
  Fluorescent Maximum, emission (em): 480 nm
  Fluorescent Maximum, excitation (ex): 240 nm
  Relative Intensity Value, Composition: 14%
  Relative Performance: 0

## Nc1cccc2cc(S(=O)(=O)O)ccc12 [1-amino-6-naphthalene sulfonic acid]
[1]
  Fluorescent Maximum, emission (em): 485 nm
  Fluorescent Maximum, excitation (ex): 245 nm
  Relative Intensity Value, Composition: 74%
  Relative Performance: 3

## Nc1cccc2ccc(S(=O)(=O)O)cc12 [1-amino-7-naphthalene sulfonic acid]
[1]
  Fluorescent Maximum, emission (em): 480 nm
  Fluorescent Maximum, excitation (ex): 340 nm
  Relative Intensity Value, Composition: 80%
  Relative Performance: 7

## Nc1cccc2cccc(S(=O)(=O)O)c12 [1-amino-8-naphthalene sulfonic acid]
[1]
  Relative Intensity Value, Composition: 0%
  Relative Performance: 0
[1]; Table VII survey, 0.4 ppm
  Detectable fluorescence in the survey (in words): did not provide detectable fluorescence

## Nc1ccc2c(S(=O)(=O)O)cccc2c1S(=O)(=O)O [2-amino-1,5-naphthalene disulfonic acid]
[1]
  Fluorescent Maximum, emission (em): 420 nm
  Fluorescent Maximum, excitation (ex): 250 nm
  Relative Intensity Value, Composition: 486%
  Relative Performance: 49

## Nc1ccc2ccccc2c1S(=O)(=O)O [2-amino-1-naphthalene sulfonic acid]
[1]
  Fluorescent Maximum, emission (em): 485 nm
  Fluorescent Maximum, excitation (ex): 245 nm
  Relative Intensity Value, Composition: 150%
  Relative Performance: 7

## Nc1cc2ccc(S(=O)(=O)O)cc2cc1S(=O)(=O)O [2-amino-3,6-naphthalene disulfonic acid]
[1]
  Fluorescent Maximum, emission (em): 440 nm
  Fluorescent Maximum, excitation (ex): 250 nm
  Relative Intensity Value, Composition: 77%
  Relative Performance: 8

## Nc1cc(S(=O)(=O)O)c2cccc(S(=O)(=O)O)c2c1 [2-amino-4,8-naphthalene disulfonic acid]
[1]
  Fluorescent Maximum, emission (em): 440 nm
  Fluorescent Maximum, excitation (ex): 245 nm

## Nc1ccc2c(S(=O)(=O)O)cc(S(=O)(=O)O)cc2c1 [2-amino-5,7-naphthalene disulfonic acid]
[1]
  Fluorescent Maximum, emission (em): 460 nm
  Fluorescent Maximum, excitation (ex): 250 nm
  Relative Intensity Value, Composition: 776%
  Relative Performance: 97
rats
  Reported LD50 (oral/rats): 2.0 grams/kilogram

## Cc1ccc(N)c(S(=O)(=O)O)c1 [2-amino-5-methylbenzene sulfonic acid]
[1]
  Fluorescent Maximum, emission (em): 370 nm
  Fluorescent Maximum, excitation (ex): 240 nm
  Relative Intensity Value, Composition: 19%
  Relative Performance: 3

## Nc1ccc2c(S(=O)(=O)O)cccc2c1 [2-amino-5-naphthalene sulfonic acid]
[1]
  Fluorescent Maximum, emission (em): 440 nm
  Fluorescent Maximum, excitation (ex): 245 nm
  Relative Intensity Value, Composition: 750%
  Relative Performance: 82

## Nc1ccc2cc(S(=O)(=O)O)cc(S(=O)(=O)O)c2c1 [2-amino-6,8-naphthalene disulfonic acid]
[1]
  Fluorescent Maximum, emission (em): 445 nm
  Fluorescent Maximum, excitation (ex): 250 nm
  Relative Intensity Value, Composition: 69%
  Relative Performance: 7
rats
  Reported LD50 (oral/rats): > 5.0 grams/kilogram

## Nc1ccc2cc(S(=O)(=O)O)ccc2c1 [2-amino-6-naphthalene sulfonic acid]
[1]
  Fluorescent Maximum, emission (em): 420 nm
  Fluorescent Maximum, excitation (ex): 245 nm
  Relative Intensity Value, Composition: 760%
  Relative Performance: 78
rats
  Reported LD50 (oral/rats): > 5.0 grams/kilogram

## Nc1ccc2ccc(S(=O)(=O)O)cc2c1 [2-amino-7-naphthalene sulfonic acid]
[1]
  Fluorescent Maximum, emission (em): 440 nm
  Fluorescent Maximum, excitation (ex): 245 nm
  Relative Intensity Value, Composition: 446%
  Relative Performance: 48

## Nc1ccc2cccc(S(=O)(=O)O)c2c1 [2-amino-8-naphthalene sulfonic acid]
[1]
  Fluorescent Maximum, emission (em): 440 nm
  Fluorescent Maximum, excitation (ex): 240 nm
  Relative Intensity Value, Composition: 638%
  Relative Performance: 75

## Nc1ccccc1C(=O)O [2-amino-benzoic acid]
[1]
  Fluorescent Maximum, emission (em): 400 nm
  Fluorescent Maximum, excitation (ex): 240 nm
  Relative Intensity Value, Composition: 110%
  Relative Performance: 13

## Nc1cccc(C(=O)O)c1 [3-amino-benzoic acid]
[1]
  Fluorescent Maximum, emission (em): 370 nm
  Fluorescent Maximum, excitation (ex): 240 nm
  Relative Intensity Value, Composition: 21%
  Relative Performance: 3

## Nc1ccc(S(=O)(=O)O)cc1 [4-amino-benzene sulfonic acid]
[1]
  Fluorescent Maximum, emission (em): 340 nm
  Fluorescent Maximum, excitation (ex): 250 nm
  Relative Intensity Value, Composition: 26%
  Relative Performance: 8

## Nc1ccc(C(=O)O)cc1 [4-amino-benzoic acid]
[1]
  Fluorescent Maximum, emission (em): 340 nm
  Fluorescent Maximum, excitation (ex): 270 nm
  Relative Intensity Value, Composition: 82%
  Relative Performance: 13

## Nc1cc(S(=O)(=O)O)ccc1S(=O)(=O)O [amino-2,5-benzene disulfonic acid]
[1]
  Fluorescent Maximum, emission (em): 380 nm
  Fluorescent Maximum, excitation (ex): 310 nm
  Relative Intensity Value, Composition: 54%
  Relative Performance: 4

## Nc1ccccc1 [aniline]
[1]
  Fluorescent Maximum, emission (em): 340 nm
  Fluorescent Maximum, excitation (ex): 230 nm
  Relative Intensity Value, Composition: 4%
  Relative Performance: 1
rats
  Reported LD50 (oral/rats): 0.25 grams/kilogram
